# According to patent US10105365B2, “Solid antiviral dosage forms” (AbbVie Inc., priority 2014, dated 2018):
# How the values were obtained:
# [1] = Sink Conditions dissolution testing of Formulation C5-12; type: physicochemical; conditions: N = 6
# Description: The release profiles of Formulation C5-12 of Example 1 were evaluated in a Sink Conditions dissolution study. The study was conducted in 900 mL of dissolution medium using a standard USP dissolution Apparatus 2 (paddle) operating at 100 RPM at 37±0.5° C. The dissolution medium was a 0.05 M sodium phosphate buffer pH 6.8 with 15 mM cTAB as a surfactant.
# [2] = Human pharmacokinetic study, Example 4 Arm II (single dose, crossover); type: in vivo; conditions: both sexes, human, oral, Example 4 Arm II, single dose, non-fasting, N = 13; for half-life / AUC(0-t) / AUC(0-inf) / Tmax: blood; for AUC(0-t): read-out: AUCt, geometric mean; for AUC(0-inf): read-out: AUC∞, geometric mean; for Tmax: read-out: Tmax; for concentration at 24 h / Cmax: in vivo; for concentration at 24 h: read-out: C24, geometric mean; for Cmax: read-out: Cmax, geometric mean
# Procedure, shortened: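 Healthy adult men and women (N=30 across Arms I and II) randomised to crossover regimen sequences; single oral dose with ~240 mL water ~30 min after a standardised breakfast; one regimen given an evening dose after a snack.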
# [3] = Solubility (general statement); type: physicochemical
# [4] = Human pharmacokinetic study, Example 5 Arm II (multiple dose, crossover); type: in vivo; conditions: Example 5 Arm II; for β, geometric mean / half-life / AUC / concentration at 24 h / Cmax / Tmax: multiple dose 14 days, non-fasting, N = 63; for half-life / AUC / concentration at 24 h / Cmax / Tmax: both sexes, human, blood, oral; for AUC: read-out: AUC24, geometric mean; for concentration at 24 h: read-out: C24, geometric mean; for Cmax: read-out: Cmax, geometric mean; for Tmax: read-out: Tmax, first value (geometric mean)
# Procedure, shortened: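 Multiple-dose two-period randomized crossover in 66 healthy adults: oral dosing for 14 days per period, ≥10-day separation, taken with ~240 mL water about 30 min after a standardized breakfast. Serial blood samples for pharmacokinetics were collected 72 hours after dosing in each period.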
# [5] = Human pharmacokinetic study, Example 4 Arm III (14-day multiple dose, steady state); type: in vivo
# [6] = Permeability (general statement); type: in vitro ADME; conditions: free acid of Compound 4; gastrointestinal tract
# [7] = Human pharmacokinetic study, Example 5 Arm I (single dose, replicated crossover); type: in vivo; conditions: both sexes, human, oral, single dose, non-fasting; for half-life / AUC(0-t) / AUC(0-inf) / Tmax: blood; for Cmax: in vivo
# Procedure, shortened: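 Single-dose, randomized, four-period, two-sequence replicated crossover in 88 healthy adults, periods separated by at least 10 days. Oral dosing in the morning with about 240 mL water, about 30 min after starting a standardized breakfast. Serial blood samples collected over 72 h after each dose.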
# [8] = 4 hours, pH 6.8 buffer, 15 mM cTAB
# [9] = 6 hours, pH 6.8 buffer, 15 mM cTAB
# [10] = 8 hours, pH 6.8 buffer, 15 mM cTAB
# [11] = 12 hours, pH 6.8 buffer, 15 mM cTAB
# [12] = 16 hours, pH 6.8 buffer, 15 mM cTAB
# [13] = 24 hours, pH 6.8 buffer, 15 mM cTAB
# [14] = 30 hours, pH 6.8 buffer, 15 mM cTAB
# [15] = 3 Formulation C5-12 tablets, Regimen E (C5-12): three Formulation C5-12 tablets in the morning
# [16] = Regimen A (reference regimen): two Triple Tablets + one Single Tablet morning, one Single Tablet evening
# [17] = Regimen B (reference regimen): two Triple Tablets + one Single Tablet morning, one Single Tablet evening
# [18] = 3 film-coated Formulation C5-12 tablets daily, Regimen A (C5-12): three film-coated Formulation C5-12 tablets daily
# [19] = Formulation C5-12, Day 14 versus Day 1
# [20] = human, in vivo, oral, 3 Formulation C5-12 tablets daily, three Formulation C5-12 tablets daily for 14 days, non-fasting, Day 14, N = 14
# [21] = three Formulation C5-12 tablets daily for 14 days, non-fasting, Day 14, N = 14
compound,measurement,setting,value
"COc1c(-c2ccc3cc(NS(C)(=O)=O)ccc3c2)cc(-n2ccc(=O)[nH]c2=O)cc1C(C)(C)C [Compound 4, N-(6-(3-tert-butyl-5-(2,4-dioxo-3,4-dihydropyrimidin-1(2H)-yl)-2-methoxyphenyl)naphthalen-2-yl)methanesulfonamide]",% Released,"[1]; 1 hour, 900 mL 0.05 M sodium phosphate buffer pH 6.8, 15 mM cTAB, USP Apparatus 2, 100 RPM, 37 °C",1%
same,mg Released,"[1]; 1 hour, pH 6.8 buffer, 15 mM cTAB",2.3 mg
same,% Released,[1]; [8],11%
same,mg Released,[1]; [8],25.7 mg
same,% Released,[1]; [9],18%
same,mg Released,[1]; [9],42.0 mg
same,% Released,[1]; [10],25%
same,mg Released,[1]; [10],58.3 mg
same,% Released,[1]; [11],39%
same,mg Released,[1]; [11],91.0 mg
same,% Released,[1]; [12],51%
same,mg Released,[1]; [12],119.0 mg
same,% Released,[1]; [13],70%
same,mg Released,[1]; [13],163.3 mg
same,% Released,[1]; [14],81%
same,mg Released,[1]; [14],189.0 mg
same,half-life,[2]; [15],6.4 h
same,AUC(0-t),[2]; [15],18400 ng·h/mL
same,AUC(0-inf),[2]; [15],18600 ng·h/mL
same,Tmax,[2]; [15],9.7 h
same,half-life,[2]; [16],5.5 h
same,AUC(0-t),[2]; [16],18200 ng·h/mL
same,AUC(0-inf),[2]; [16],18400 ng·h/mL
same,Tmax,[2]; [16],3.1 h
same,concentration at 24 h,[2]; [15],290 ng/mL
same,Cmax,[2]; [15],1350 ng/mL
same,concentration at 24 h,[2]; [16],361 ng/mL
same,Cmax,[2]; [16],1240 ng/mL
same,Solubility,[3]; aqueous,low solubility
same,Solubility in the gastrointestinal tract,[3]; free acid of Compound 4,poor solubility
same,"β, geometric mean",[4]; Regimen A (C5-12): three film-coated Formulation C5-12 tablets daily,0.104 h⁻¹
same,"β, geometric mean",[4]; [17],0.122 h⁻¹
same,"Exposures (Cmax,ss and AUC24,ss) versus the reference regimen","[4]; Formulation C5-12, point estimate and 90% confidence interval for the GMR within 0.80-1.25",bioequivalent
same,"C24,ss lower than C24,ss (Ctrough) for the reference regimen",[4]; Formulation C5-12 relative to the reference regimen,29%
same,half-life,[4]; [18],6.2 h
same,AUC,[4]; [18],8810 ng·h/mL
same,concentration at 24 h,[4]; [18],116 ng/mL
same,Cmax,[4]; [18],799 ng/mL
same,Tmax,[4]; [18],8 h
same,half-life,[4]; [17],5.5 h
same,AUC,[4]; [17],9770 ng·h/mL
same,concentration at 24 h,[4]; [17],162 ng/mL
same,Cmax,[4]; [17],879 ng/mL
same,Tmax,[4]; [17],4 h
same,"AUC24, RATIO",[5]; [19],0.88
same,"C24, RATIO",[5]; [19],0.63
same,"Cmax, RATIO",[5]; [19],0.95
same,Tmax,"[5]; human, in vivo, oral, 3 Formulation C5-12 tablets daily, three Formulation C5-12 tablets daily for 14 days, non-fasting, Day 1, N = 14",9 h
same,AUC,"[5]; human, in vivo, oral, 3 Formulation C5-12 tablets daily, three Formulation C5-12 tablets daily for 14 days, non-fasting, Day 1, N = 14, read-out: AUC24, geometric mean",13600 ng·h/mL
same,concentration at 24 h,"[5]; human, in vivo, oral, 3 Formulation C5-12 tablets daily, three Formulation C5-12 tablets daily for 14 days, non-fasting, Day 1, N = 14, read-out: C24, geometric mean",272 ng/mL
same,Cmax,"[5]; human, in vivo, oral, 3 Formulation C5-12 tablets daily, three Formulation C5-12 tablets daily for 14 days, non-fasting, Day 1, N = 14, read-out: Cmax, geometric mean",1320 ng/mL
same,Tmax,[5]; [20],9.4 h
same,half-life,[5]; [20],5.9 h
same,AUC,"[5]; human, in vivo, oral, 3 Formulation C5-12 tablets daily, three Formulation C5-12 tablets daily for 14 days, non-fasting, Day 14, N = 14, read-out: AUC24, geometric mean",12000 ng·h/mL
same,concentration at 24 h,"[5]; human, in vivo, oral, 3 Formulation C5-12 tablets daily, three Formulation C5-12 tablets daily for 14 days, non-fasting, Day 14, N = 14, read-out: C24, geometric mean",172 ng/mL
same,Cmax,"[5]; human, in vivo, oral, 3 Formulation C5-12 tablets daily, three Formulation C5-12 tablets daily for 14 days, non-fasting, Day 14, N = 14, read-out: Cmax, geometric mean",1250 ng/mL
same,"C24, arithmetic mean, % CV",[5]; [21],"(210,61) ng/mL"
same,β,[5]; [21],0.117 h⁻¹
same,Permeability,[6],good permeability
same,half-life,"[7]; 3 film-coated Formulation C5-12 tablets, Regimen A (C5-12): three film-coated Formulation C5-12 tablets, N = 172",6.91 h
same,AUC(0-t),"[7]; 3 film-coated Formulation C5-12 tablets, Regimen A (C5-12): three film-coated Formulation C5-12 tablets, N = 172, read-out: AUCt, geometric mean",12700 ng·h/mL
same,AUC(0-inf),"[7]; 3 film-coated Formulation C5-12 tablets, Regimen A (C5-12): three film-coated Formulation C5-12 tablets, N = 172, read-out: AUC∞, geometric mean",12900 ng·h/mL
same,Tmax,"[7]; 3 film-coated Formulation C5-12 tablets, Regimen A (C5-12): three film-coated Formulation C5-12 tablets, N = 172, read-out: Tmax, first value (geometric mean)",8 h
same,half-life,"[7]; Regimen B (reference regimen): two Triple Tablets + one Single Tablet morning, one Single Tablet evening, N = 171",5.8 h
same,AUC(0-t),"[7]; Regimen B (reference regimen): two Triple Tablets + one Single Tablet morning, one Single Tablet evening, N = 171, read-out: AUCt, geometric mean",14800 ng·h/mL
same,AUC(0-inf),"[7]; Regimen B (reference regimen): two Triple Tablets + one Single Tablet morning, one Single Tablet evening, N = 171, read-out: AUC∞, geometric mean",14900 ng·h/mL
same,Tmax,"[7]; Regimen B (reference regimen): two Triple Tablets + one Single Tablet morning, one Single Tablet evening, N = 171, read-out: Tmax, first value (geometric mean)",4 h
same,Cmax,"[7]; 3 film-coated Formulation C5-12 tablets, Regimen A (C5-12): three film-coated Formulation C5-12 tablets, N = 172, read-out: Cmax, geometric mean",1060 ng/mL
same,Cmax,"[7]; Regimen B (reference regimen): two Triple Tablets + one Single Tablet morning, one Single Tablet evening, N = 171, read-out: Cmax, geometric mean",1030 ng/mL
